What is called EC50 is the concentration giving half of the maximal effect. What is called IC50 is the midpoint of a concentration-inhibition curve.

For 24 compounds, EC50 and IC50 results are on record in patent publication US11046686B2, “Thiadiazole IRAK4 compounds” (Gilead Sciences, Inc., priority 2018, dated 2021).

For assay [1], the system named is TNFα. Briefly: IRAK4 Monocyte TNFα Cell Based Assay. More on the design: species or system human. As to conditions: Homo sapiens, Monocyte, human monocytes. The method, boiled down:
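Human monocytes (5,000/well) pretreated with compound 1 h at 37 °C (0.1% DMSO final), then stimulated with 50 pg/ml LPS for 4 h. Secreted TNFα measured by TR-FRET two-antibody detection after overnight incubation at room temperature; % control relative to unstimulated and LPS-stimulated wells.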

Assay [2] concerns the target IRAK4 enzyme (Homo sapiens (Human), UniProt Q9NWZ3). Nature of the assay: IRAK4 Biochemical Assay (TR-FRET, STK1 KinEASE). Summed up: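 IRAK4 (0.75 nM) preincubated 15 min with compound and […] STK1 peptide, then started with 500 μM ATP in HEPES pH 7.0 buffer with MgCl2, DTT, BSA, NP-40; 120 min at room temperature.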
Where [3] appears, read: LPS stimulated, compounds 1-32, read-out: EC50 TNF.
The mark [4] stands for this setting: compounds 1-32, read-out: IC50 HTRF.
Setting [5] is: second part of Table 2, compounds 33-343, unit inferred, read-out: EC50 MONO TNF HTRF.

Where two headings read alike, the source gives them in different places.

Sequence of IRAK4 enzyme (Q9NWZ3 whole entry): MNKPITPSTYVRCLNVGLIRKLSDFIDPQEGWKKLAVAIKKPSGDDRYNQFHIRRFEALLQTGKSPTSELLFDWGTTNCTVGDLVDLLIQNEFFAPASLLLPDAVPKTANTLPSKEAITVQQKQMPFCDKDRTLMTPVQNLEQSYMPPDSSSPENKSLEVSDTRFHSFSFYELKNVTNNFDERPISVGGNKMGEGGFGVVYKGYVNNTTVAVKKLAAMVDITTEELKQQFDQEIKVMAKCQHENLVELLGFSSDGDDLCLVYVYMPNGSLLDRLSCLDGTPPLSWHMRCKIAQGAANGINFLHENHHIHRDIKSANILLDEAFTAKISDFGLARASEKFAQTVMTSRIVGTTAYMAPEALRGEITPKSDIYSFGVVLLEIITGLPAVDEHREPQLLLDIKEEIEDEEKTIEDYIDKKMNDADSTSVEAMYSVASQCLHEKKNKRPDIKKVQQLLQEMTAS

In the case of `CC(C)Nc1cc(-c2ccc3cc(C#N)cnn23)ncc1-c1nnc(C(=O)N2CCOCC2)s1` [Example 18, 7-(4-(isopropylamino)-5-(5-(morpholine-4-carbonyl)-1,3,4-thiadiazol-2-yl)pyridin-2-yl)pyrrolo[1,2-b]pyridazine-3-carbonitrile], the concentration for a half-maximal effect (EC50) in assay [1] (setting [3]) is above 10000 nM. In addition, the IC50 in assay [2] (setting [4]) worked out at 1000 nM.

Consider `CC(=O)Nc1nnc(-c2cnc(-c3ccc4cc(C#N)cnn34)cc2NC(C)C)s1` [Example 19, N-(5-(6-(3-cyanopyrrolo[1,2-b]pyridazin-7-yl)-4-(isopropylamino)pyridin-3-yl)-1,3,4-thiadiazol-2-yl)acetamide], for which the 50% effective concentration (EC50) in assay [1] (setting [3]) amounted to 5870 nM. The IC50 in assay [2] (setting [4]) was 1 nM.

As for `CC(=O)N[C@H]1CC[C@H](c2nnc(-c3cnc(-c4ccc5cc(C#N)cnn45)cc3NCC#N)s2)CC1` [Example 20, N-((1r,4r)-4-(5-(4-((cyanomethyl)amino)-6-(3-cyanopyrrolo[1,2-b]pyridazin-7-yl)pyridin-3-yl)-1,3,4-thiadiazol-2-yl)cyclohexyl)acetamide], in assay [1] (setting [3]), the concentration giving a half-maximal response (EC50) was determined as 6 nM. For the same compound, the 50% inhibitory concentration (IC50) in assay [2] (setting [4]) was below 1 nM.

Consider `CC(=O)N[C@H]1CC[C@H](c2nnc(-c3cnc(-c4ccc5cc(C#N)cnn45)cc3NC3COC3)s2)CC1` [Example 21, N-((1r,4r)-4-(5-(6-(3-cyanopyrrolo[1,2-b]pyridazin-7-yl)-4-(oxetan-3-ylamino)pyridin-3-yl)-1,3,4-thiadiazol-2-yl)cyclohexyl)acetamide], for which the half-maximal effective concentration (EC50) in assay [1] (setting [3]) was found to be 10 nM. In addition, in assay [2] (setting [4]), the IC50 is below 1 nM.

For the compound `CNc1cc(-c2ccc3cc(C#N)cnn23)ncc1-c1nnc([C@H]2CC[C@H](NC(C)=O)CC2)s1` [Example 22, N-((1r,4r)-4-(5-(6-(3-cyanopyrrolo[1,2-b]pyridazin-7-yl)-4-(methylamino)pyridin-3-yl)-1,3,4-thiadiazol-2-yl)cyclohexyl)acetamide], the concentration giving a half-maximal response (EC50) in assay [1] (setting [3]) was 25 nM. In assay [2] (setting [4]), the IC50 was below 1 nM.

`COC(=O)NC[C@H]1C[C@H](Nc2cc(-c3ccc4cc(C#N)cnn34)ncc2-c2nnc([C@H]3CC[C@H](NC(C)=O)CC3)s2)C1` [Example 23, methyl (((1R,3r)-3-((5-(5-((1r,4R)-4-acetamidocyclohexyl)-1,3,4-thiadiazol-2-yl)-2-(3-cyanopyrrolo[1,2-b]pyridazin-7-yl)pyridin-4-yl)amino)cyclobutyl)methyl)carbamate]: the EC50 in assay [1] (setting [3]) worked out at 6 nM. Besides, the half-inhibitory concentration (IC50) in assay [2] (setting [4]) is below 1 nM.

As to `Cc1nnc(-c2cnc(-c3ccc4cc(C#N)cnn34)cc2NC(C)C)s1` [Example 25, 7-(4-(isopropylamino)-5-(5-methyl-1,3,4-thiadiazol-2-yl)pyridin-2-yl)pyrrolo[1,2-b]pyridazine-3-carbonitrile], the EC50 in assay [1] (setting [3]) turned out to be 1460 nM. Also, the IC50 in assay [2] (setting [4]) was below 1 nM.

Turning to `CC(C)Nc1cc(-c2ccc3cc(C#N)cnn23)ncc1-c1nnc(CCN)s1` [Example 26, 7-(5-(5-(2-aminoethyl)-1,3,4-thiadiazol-2-yl)-4-(isopropylamino)pyridin-2-yl)pyrrolo[1,2-b]pyridazine-3-carbonitrile], in assay [1] (setting [3]), the EC50 turned out to be 305 nM. Also, in assay [2] (setting [4]), the half-inhibitory concentration (IC50) turned out to be 1 nM.

Take `CC(C)Nc1cc(-c2ccc3cc(C#N)cnn23)ncc1-c1nnc(NC[C@@H](F)C(C)(C)O)s1` [Example 27, (R)-7-(5-(5-((2-fluoro-3-hydroxy-3-methylbutyl)amino)-1,3,4-thiadiazol-2-yl)-4-(isopropylamino)pyridin-2-yl)pyrrolo[1,2-b]pyridazine-3-carbonitrile]: the concentration for a half-maximal effect (EC50) in assay [1] (setting [3]) came to 67 nM. Also, the IC50 in assay [2] (setting [4]) was 1 nM.

Consider `CC(C)Nc1cc(-c2ccc3cc(C#N)cnn23)ncc1-c1nnc(-n2cccc2)s1` [Example 28, 7-(5-(5-(1H-pyrrol-1-yl)-1,3,4-thiadiazol-2-yl)-4-(isopropylamino)pyridin-2-yl)pyrrolo[1,2-b]pyridazine-3-carbonitrile], for which, in assay [1] (setting [3]), the EC50 was found to be 6340 nM. The IC50 in assay [2] (setting [4]) is 1.7 nM.

With `CC(C)Nc1cc(-c2ccc3cc(C#N)cnn23)ncc1-c1nncs1` [Example 30, 7-(4-(isopropylamino)-5-(1,3,4-thiadiazol-2-yl)pyridin-2-yl)pyrrolo[1,2-b]pyridazine-3-carbonitrile], the EC50 in assay [1] (setting [3]) came to 78 nM. Moreover, the concentration for half-maximal inhibition (IC50) in assay [2] (setting [4]) was 1 nM.

As to `CC(C)Nc1cc(-c2ccc3cc(C#N)cnn23)ncc1-c1nnc(CCC(C)(C)O)s1` [Example 31, 7-(5-(5-(3-hydroxy-3-methylbutyl)-1,3,4-thiadiazol-2-yl)-4-(isopropylamino)pyridin-2-yl)pyrrolo[1,2-b]pyridazine-3-carbonitrile], in assay [1] (setting [3]), the EC50 was determined as 5 nM. In assay [2] (setting [4]), the IC50 was below 1 nM.

Consider `CC(=O)NC1CN(c2nnc(-c3cnc(-c4ccc5cc(C#N)cnn45)cc3NC(C)C)s2)C1` [Example 33, N-(1-(5-(6-(3-cyanopyrrolo[1,2-b]pyridazin-7-yl)-4-(isopropylamino)pyridin-3-yl)-1,3,4-thiadiazol-2-yl)azetidin-3-yl)acetamide], for which the EC50 in assay [1] (setting [5]) was 3970 nM. This compound also showed an IC50 in assay [2] of 0.49 nM.

As to `CC(C)Nc1cc(-c2ccc3cc(C#N)cnn23)ncc1-c1nnc(N2CCN3CCOC[C@@H]3C2)s1` [Example 35, (S)-7-(5-(5-(hexahydropyrazino[2,1-c][1,4]oxazin-8(1H)-yl)-1,3,4-thiadiazol-2-yl)-4-(isopropylamino)pyridin-2-yl)pyrrolo[1,2-b]pyridazine-3-carbonitrile], the concentration for a half-maximal effect (EC50) in assay [1] (setting [5]) was 78.2 nM. Besides, the concentration for half-maximal inhibition (IC50) in assay [2] is 0.87 nM.

With `CC(C)Nc1cc(-c2ccc3cc(C#N)cnn23)ncc1-c1nnc(N2CCN3CCOC[C@H]3C2)s1` [Example 36, (R)-7-(5-(5-(hexahydropyrazino[2,1-c][1,4]oxazin-8(1H)-yl)-1,3,4-thiadiazol-2-yl)-4-(isopropylamino)pyridin-2-yl)pyrrolo[1,2-b]pyridazine-3-carbonitrile], the EC50 in assay [1] (setting [5]) was determined as 5 nM. The compound further returned a concentration for half-maximal inhibition (IC50) in assay [2] of 0.48 nM.

With `CC(C)Nc1cc(-c2ccc3cc(C#N)cnn23)ncc1-c1nnc(NCC(C)(C)O)s1` [Example 37, 7-(5-(5-((2-hydroxy-2-methylpropyl)amino)-1,3,4-thiadiazol-2-yl)-4-(isopropylamino)pyridin-2-yl)pyrrolo[1,2-b]pyridazine-3-carbonitrile], the EC50 in assay [1] (setting [5]) was 10000 nM. Further, the half-maximal inhibitory concentration (IC50) in assay [2] came to 1000 nM.

As to `CC(=O)N[C@@H]1CCN(C(=O)c2cnc(-c3cnc(-c4ccc5cc(C#N)cnn45)cc3NC(C)C)s2)C1` [Example 40, (R)-N-(1-(2-(6-(3-cyanopyrrolo[1,2-b]pyridazin-7-yl)-4-(isopropylamino)pyridin-3-yl)thiazole-5-carbonyl)pyrrolidin-3-yl)acetamide], the EC50 in assay [1] (setting [5]) stood at 87.6 nM. The compound further came in with an IC50 in assay [2] of 3.09 nM.

For the compound `CC(=O)NC[C@@H]1CCCN1C(=O)c1nnc(-c2cnc(-c3ccc4cc(C#N)cnn34)cc2NC(C)C)s1` [Example 41, (S)-N-((1-(5-(6-(3-cyanopyrrolo[1,2-b]pyridazin-7-yl)-4-(isopropylamino)pyridin-3-yl)-1,3,4-thiadiazole-2-carbonyl)pyrrolidin-2-yl)methyl)acetamide], the EC50 in assay [1] (setting [5]) was found to be 11.6 nM. In addition, the 50% inhibitory concentration (IC50) in assay [2] stood at 1.38 nM.

For the compound `COC(=O)N[C@@H]1CCN(C(=O)c2nnc(-c3cnc(-c4ccc5cc(C#N)cnn45)cc3NC(C)C)s2)C1` [Example 44, methyl (R)-(1-(5-(6-(3-cyanopyrrolo[1,2-b]pyridazin-7-yl)-4-(isopropylamino)pyridin-3-yl)-1,3,4-thiadiazole-2-carbonyl)pyrrolidin-3-yl)carbamate], the EC50 in assay [1] (setting [5]) was determined as 27.4 nM. Moreover, the IC50 in assay [2] stood at 0.53 nM.

As to `CC(C)Nc1cc(-c2ccc3cc(C#N)cnn23)ncc1-c1nnc(C(=O)N2CC[C@H](NC(=O)C3CC3)C2)s1` [Example 46, (S)-N-(1-(5-(6-(3-cyanopyrrolo[1,2-b]pyridazin-7-yl)-4-(isopropylamino)pyridin-3-yl)-1,3,4-thiadiazole-2-carbonyl)pyrrolidin-3-yl)cyclopropanecarboxamide], in assay [1] (setting [5]), the 50% effective concentration (EC50) was 16.7 nM. In assay [2], this compound had a concentration for half-maximal inhibition (IC50) of 0.67 nM.

Turning to `CC(=O)N[C@H]1CCCN(C(=O)c2nnc(-c3cnc(-c4ccc5cc(C#N)cnn45)cc3NC(C)C)s2)C1` [Example 48, (S)-N-(1-(5-(6-(3-cyanopyrrolo[1,2-b]pyridazin-7-yl)-4-(isopropylamino)pyridin-3-yl)-1,3,4-thiadiazole-2-carbonyl)piperidin-3-yl)acetamide], in assay [1] (setting [5]), the EC50 worked out at 37.5 nM. This compound gave an IC50 in assay [2] of 1.91 nM.

Take `CC(=O)N[C@@H]1CCCN(C(=O)c2nnc(-c3cnc(-c4ccc5cc(C#N)cnn45)cc3NC(C)C)s2)C1` [Example 49, (R)-N-(1-(5-(6-(3-cyanopyrrolo[1,2-b]pyridazin-7-yl)-4-(isopropylamino)pyridin-3-yl)-1,3,4-thiadiazole-2-carbonyl)piperidin-3-yl)acetamide]: the EC50 in assay [1] (setting [5]) turned out to be 34.3 nM. Also, in assay [2], half-maximal inhibition (IC50) required 1.75 nM.

As to `CC(=O)N[C@H]1CC[C@H](c2nnc(-c3cnc(-c4ccc5cnc(N[C@@H]6CCCC[C@@H]6N)nn45)cc3NC(C)C)s2)CC1` [Example 50, N-((1r,4r)-4-(5-(6-(2-(((1R,2S)-2-aminocyclohexyl)amino)pyrrolo[2,1-f][1,2,4]triazin-7-yl)-4-(isopropylamino)pyridin-3-yl)-1,3,4-thiadiazol-2-yl)cyclohexyl)acetamide], the half-maximal effective concentration (EC50) in assay [1] (setting [5]) turned out to be 3.6 nM. The compound also showed a 50% inhibitory concentration (IC50) in assay [2] of 0.92 nM.

For the compound `CC(=O)N[C@@H]1[C@@H]2CC[C@H]1CN(c1nnc(-c3cnc(-c4ccc5cnc(N[C@@H]6CCCC[C@@H]6N)nn45)cc3N[C@H](C)C#N)s1)C2` [Example 61, N-((1R,5S,8S)-3-(5-(6-(2-(((1R,2S)-2-aminocyclohexyl)amino)pyrrolo[2,1-f][1,2,4]triazin-7-yl)-4-(((R)-1-cyanoethyl)amino)pyridin-3-yl)-1,3,4-thiadiazol-2-yl)-3-azabicyclo[3.2.1]octan-8-yl)acetamide], in assay [1] (setting [5]), the concentration for a half-maximal effect (EC50) was determined as 5.3 nM. It took 1.01 nM to reach half-maximal inhibition in assay [2] (IC50).
